Legend:
[1] = test system: HPV16 transformed syngeneic cells (TC-1); assay: Therapy of HPV16 E6/E7 transformed tumor cells (TC-1) by peptide plus in vivo CD40 triggering; set-up: species or system C57BL/6 mice; conditions: treated 6 days after s.c. injection of 25.000 TC-1 cells; 100 μg peptide i.p. in IFA; n=10
Protocol: Mice were injected s.c with 25.000 HPV16 transformed syngeneic cells (TC-1). C57BL/6 mice were left untreated (-◯-) or after 6 days received 100 μg HPV16 E7-peptide i.p. in IFA (-□-), 100 μg HPV16 E7-peptide i.p. in IFA in combination with the anti-CD40 mAb FGK-45 (-▪-) or a control peptide i.p. in IFA in combination with the anti-CD40 mAb FGK-45 (-●-). The percentage of tumor bearing mice is depicted for different treatment groups (n=10) in (a). The differences between the group treated with the HPV16-peptide plus the anti-CD40 mAb and the other three groups were statistically significant (p<0.01) (Log-Rank test). In (b) the percentage of surviving animals is shown (E7-peptide-treated group vs E7-peptide plus anti-CD40-treated group: p=0.002, Log-Rank test).
It was examined whether CD40-triggering in vivo is beneficial to the outcome of vaccination with an HPV16 E7-derived peptide.

[2] = test system: HPV16 transformed syngeneic cells (TC-1); conditions: preventive vaccination with peptide, prior knowledge; cited from earlier work
E1A-specific CTL clone = assay: Spleen cells of peptide-injected mice as stimulator cells for an E1A-specific CTL clone ([3H]-thymidine incorporation); type: cell-based, C57BL/6 mice; conditions: splenocytes isolated 16 h after s.c. injection of 100 μg peptide in IFA
Protocol: Spleen cells derived from untreated C57BL/6 mice (−), or from mice injected s.c. 16 h earlier with 100 μg of E1A- or HPV16 E7-peptide in IFA were used as stimulator cells for an E1A-specific CTL clone. [^3H]-thymidine incorporation (cpm) +/−S. E. M. is shown for different effector to stimulator concentrations,. without subtraction of background counts. Results are representative of 5 independent experiments.
Spleen cells from these mice were isolated 16h later and used as stimulator cells for an E1A-specific CTL clone in vitro.

E1A-specific CTL = assay: E1A-peptide in IFA with in vivo CD40-triggering: E1A-specific CTL cytotoxicity and Db/E1A tetramer staining; set-up: species or system C57BL/6 mice; conditions: spleen of vaccinated mice
Excerpt: Since CD4^+ T cell-mediated helper activity has been implicated in the prevention of peripheral CTL tolerance induction, the inventors addressed the question whether CD40-triggering in vivo is sufficient to prevent peripheral E1A-specific CTL tolerization.

CD40 = biological target: T1, CD40 (Mus musculus, UniProt P27512); assay: Cross-priming of E1B-specific CTLs in mice immunized with Ad5E1-BALB/c MECs, CD40 activation replacing CD4+ T help; type: in vivo; conditions: CD4-depleted mice after immunization; LPS 50 μg intravenous; IL-2 1×10^5 units in IFA subcutaneous (not shown)
T1 construct: endogenous in cells
Excerpt: (§1) Each line represents one mouse.
as §1

T1 sequence (P27512 20-289): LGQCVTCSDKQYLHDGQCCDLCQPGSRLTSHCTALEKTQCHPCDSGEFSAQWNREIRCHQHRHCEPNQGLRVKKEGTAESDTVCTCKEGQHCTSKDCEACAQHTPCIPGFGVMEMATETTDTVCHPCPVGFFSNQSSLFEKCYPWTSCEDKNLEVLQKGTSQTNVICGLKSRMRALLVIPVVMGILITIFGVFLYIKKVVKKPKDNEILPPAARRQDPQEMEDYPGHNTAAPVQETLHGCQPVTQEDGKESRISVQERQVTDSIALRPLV

Substance	Tumor growth / outgrowth [1]	Immunity against a challenge with HPV16-transformed tumor cells [2]	Proliferation of E1A-specific CTL clone on splenocytes (E1A-specific CTL clone)	Percentage of CD8+ cells that stained with the Db/E1A tetramers (E1A-specific CTL)	E1B-specific CTL activity / CTL priming (CD40)
RAHYNIVTF (Human Papilloma Virus Type 16 E7 derived peptide) [E7-peptide]	able to slow down tumor growth, but eventually most animals succumb to the tumor	induces protective CTL-mediated immunity	failed to do so		
SGPSNTPPEI (Human Adenovirus E1A derived peptide) [E1A-peptide]			induced specific proliferation	approximately 3%	
bacterial lipopolysaccharide [LPS]					neither LPS or IL-2 treatment resulted in detectable CTL priming

From US7563445B2, “CD40 binding molecules and CTL peptides for treating tumors” (priority 1998, dated 2009)
